Where “and” joins values, the source holds several entries; their conditions need not be identical. Equal entries are not always repeated. Results filed as inconclusive are left out.

The source of these data is PubChem BioAssay AID264 (DTP/NCI, 2004).

This test has as its system nude mice, LX-1 lung xenograft intrarenal, tumor weight T/C. Put plainly: NCI In Vivo Anticancer Drug Screen. Data for tumor model Human Lung LX-1 Xenograft (intrarenal inoculation) in NU/NU Swiss (nude) mice. Particulars: endpoint: mean tumor weight change, higher = larger tumour. In a few lines: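 Readout: T/C, i.e. treated-group tumor measurement over vehicle-control measurement. Mice bearing transplantable tumors were dosed with compound or vehicle.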

[1] abbreviates: dose: 150.0 mg/kg/injection, schedule: Q04DX003 (sc), vehicle: saline with Tween-80.
Setting [2] is: dose: 300.0 mg/kg/injection, schedule: Q04DX003 (sc), vehicle: saline with Tween-80.
[3] abbreviates: dose: 75.0 mg/kg/injection, schedule: Q04DX003 (sc), vehicle: Klucel (hydroxypropylcellulose) (HPC).
The mark [4] stands for this setting: dose: 150.0 mg/kg/injection, schedule: Q04DX003 (sc), vehicle: Klucel (hydroxypropylcellulose) (HPC).
The mark [5] stands for this setting: dose: 50.0 mg/kg/injection, schedule: Q04DX003 (sc), vehicle: saline with Tween-80.
[6] abbreviates: dose: 100.0 mg/kg/injection, schedule: Q04DX003 (sc), vehicle: saline with Tween-80.
Setting [7] is: dose: 600.0 mg/kg/injection, schedule: Q04DX003 (sc), vehicle: saline with Tween-80.

With `Cc1ccc2nc(-c3ccc4nc(-c5ccc(N=Nc6ccc(-c7nc8ccc(-c9nc%10ccc(C)c(S(=O)(=O)O)c%10s9)cc8s7)cc6)cc5)sc4c3)sc2c1S(=O)(=O)O`, the T/C is 76 % of control (dose: 100.0 mg/kg/injection, schedule: Q04DX003 (sc), vehicle: suspension in saline); 64 % of control (dose: 400.0 mg/kg/injection, schedule: Q04DX003 (sc), vehicle: suspension in saline); 101 % of control (dose: 800.0 mg/kg/injection, schedule: Q04DX003 (sc), vehicle: suspension in saline).
As for `CCCCCCCCCCCCCC#CC(=O)O`, the T/C (dose: 75.0 mg/kg/injection, schedule: Q04DX003 (sc), vehicle: saline with Tween-80) is 89 % of control; the T/C under setting [1] is 112 % of control; the T/C under setting [2] was 105 % of control.
With `CC1CN1C(=O)NCCCCCCNC(=O)N1CC1C` (stereo not drawn), the T/C (dose: 40.0 mg/kg/injection, schedule: Q04DX003 (sc), vehicle: Klucel (hydroxypropylcellulose) (HPC)) is 6 % of control and 23 % of control.
For `Cc1cc(NCCCN(C)C)c2ccc3c(ccc4c(NCCCN(C)C)cc(C)nc43)c2n1`, the T/C (dose: 9.38 mg/kg/injection, schedule: Q04DX003 (sc), vehicle: saline with Tween-80) is 86 % of control and the T/C (dose: 18.75 mg/kg/injection, schedule: Q04DX003 (sc), vehicle: saline with Tween-80) was 82 % of control.
For `CN(C)C=O`, the T/C is 91 % of control (dose: 800.0 mg/kg/injection, schedule: Q01DX010 (sc), vehicle: saline) and 74 % of control (dose: 1600.0 mg/kg/injection, schedule: Q01DX010 (sc), vehicle: saline).
Regarding `N/C(=N\OC(=O)Nc1ccc(CSc2ccc(Cl)cc2)o1)c1ccccn1`, the T/C is 69 % of control under setting [3]; 66 % of control under setting [4]; 180 % of control (dose: 300.0 mg/kg/injection, schedule: Q04DX003 (sc), vehicle: Klucel (hydroxypropylcellulose) (HPC)).
In the case of `COc1ccc(-c2csc(=[N+]3CCCCC3)s2)cc1`, the T/C (dose: 1.56 mg/kg/injection, schedule: Q04DX003 (sc), vehicle: water) was 91 % of control; the T/C (dose: 3.12 mg/kg/injection, schedule: Q04DX003 (sc), vehicle: water) is 84 % of control; the T/C (dose: 6.25 mg/kg/injection, schedule: Q04DX003 (sc), vehicle: water) is 72 % of control; the T/C (dose: 12.5 mg/kg/injection, schedule: Q04DX003 (sc), vehicle: water) is 80 % of control.
`COC1=NCN=C2SC=C(N)N=C12`: the T/C (dose: 150.0 mg/kg/injection, schedule: Q04DX003 (sc), vehicle: suspension in saline) is 79 % of control.
In the case of `C=C1N(C)c2ccccc2C1(C)C`, the T/C runs as follows: under setting [5], 80 % of control; under setting [6], 76 % of control.
As for `ClC1=C(Cl)C(Cl)=C(Cl)C1=Cc1ccccc1`, the T/C was 96 % of control under setting [5]; 91 % of control (dose: 200.0 mg/kg/injection, schedule: Q04DX003 (sc), vehicle: saline with Tween-80); 105 % of control (dose: 400.0 mg/kg/injection, schedule: Q04DX003 (sc), vehicle: saline with Tween-80).
In the case of `CCCC(=O)O`, the T/C is 103 % of control (dose: 100.0 mg/kg/injection, schedule: Q01DX010 (sc), vehicle: saline); 77 % of control (dose: 200.0 mg/kg/injection, schedule: Q01DX010 (sc), vehicle: saline); 71 % of control (dose: 400.0 mg/kg/injection, schedule: Q01DX010 (sc), vehicle: saline).
On to `CSc1ccc2c(c1)C(N1CCN(C)CC1)Cc1ccccc1S2` (stereo not drawn), for which the T/C reads like this: (dose: 25.0 mg/kg/injection, schedule: Q04DX003 (sc), vehicle: saline with Tween-80) 152 % of control; under setting [5], 88 % of control; under setting [6], 171 % of control.
For `C=C(C)[C@H]1CN[C@H](C(=O)O)[C@H]1CC(=O)O`, the T/C was 164 % of control (dose: 10.0 mg/kg/injection, schedule: Q04DX003 (sc), vehicle: saline) and 97 % of control (dose: 20.0 mg/kg/injection, schedule: Q04DX003 (sc), vehicle: saline).
`CC(C)(C)c1ccc(CN2CCN(C(c3ccccc3)c3ccc(Cl)cc3)CC2)cc1` (stereo not drawn): the T/C is 79 % of control (dose: 37.5 mg/kg/injection, schedule: Q04DX003 (sc), vehicle: Klucel (hydroxypropylcellulose) (HPC)); 63 % of control under setting [3]; 71 % of control under setting [4]; 63 % of control (dose: 600.0 mg/kg/injection, schedule: Q04DX003 (sc), vehicle: Klucel (hydroxypropylcellulose) (HPC)); 78 % of control (dose: 1200.0 mg/kg/injection, schedule: Q04DX003 (sc), vehicle: Klucel (hydroxypropylcellulose) (HPC)); 62 % of control (dose: 2400.0 mg/kg/injection, schedule: Q04DX003 (sc), vehicle: Klucel (hydroxypropylcellulose) (HPC)).
With `COc1cc([C@@H]2c3cc4c(c(O)c3C[C@H]3COC(=O)[C@@H]32)OCO4)cc(OC)c1OC`, the T/C is, setting by setting: (dose: 0.25 mg/kg/injection, schedule: Q01DX010 (sc), vehicle: saline) 91 % of control; (dose: 0.5 mg/kg/injection, schedule: Q01DX010 (sc), vehicle: saline) 50 % of control; (dose: 1.0 mg/kg/injection, schedule: Q01DX010 (sc), vehicle: saline) 58 % of control; (dose: 2.0 mg/kg/injection, schedule: Q01DX010 (sc), vehicle: saline) 71 % of control and 73 % of control; (dose: 4.0 mg/kg/injection, schedule: Q01DX010 (sc), vehicle: saline) 117 % of control; (dose: 8.0 mg/kg/injection, schedule: Q01DX010 (sc), vehicle: saline) 168 % of control.
With `c1ccc2c(c1)nnn1c3cnccc3nc21`, the T/C is, setting by setting: (dose: 3.12 mg/kg/injection, schedule: Q01DX010 (sc), vehicle: saline with Tween-80) 59 % of control; (dose: 6.25 mg/kg/injection, schedule: Q01DX010 (sc), vehicle: saline with Tween-80) 187 % of control; (dose: 12.5 mg/kg/injection, schedule: Q01DX010 (sc), vehicle: saline with Tween-80) 72 % of control; (dose: 25.0 mg/kg/injection, schedule: Q01DX010 (sc), vehicle: saline with Tween-80) 107 % of control; (dose: 50.0 mg/kg/injection, schedule: Q01DX010 (sc), vehicle: saline with Tween-80) 160 % of control; (dose: 100.0 mg/kg/injection, schedule: Q01DX010 (sc), vehicle: saline with Tween-80) 210 % of control.
Turning to `C1CNCOC1`, the T/C (dose: 300.0 mg/kg/injection, schedule: Q04DX003 (sc), vehicle: saline) is 90 % of control.
`[I][Hg][CH2]C1COC([CH2][Hg][I])CO1` (stereo not drawn): the T/C is, setting by setting: under setting [1], 105 % of control; under setting [2], 97 % of control; under setting [7], 80 % of control; (dose: 1200.0 mg/kg/injection, schedule: Q04DX003 (sc), vehicle: saline with Tween-80) 97 % of control.
Take `Cc1nnc2ncccn12`: the T/C is 112 % of control (dose: 100.0 mg/kg/injection, schedule: Q04DX003 (sc), vehicle: saline) and 107 % of control (dose: 200.0 mg/kg/injection, schedule: Q04DX003 (sc), vehicle: saline).
On to `Cc1cc(NS(=O)(=O)c2ccc(N=Nc3cc(N=Nc4ccc(S(=O)(=O)Nc5cc(C)nc(C)n5)cc4)c4c(NC(=O)C(Cl)Cl)cccc4c3OC(=O)C(Cl)Cl)cc2)nc(C)n1` (tested in a mixture with another compound), for which the T/C (dose: 600.0 mg/kg/injection, schedule: Q04DX003 (sc), vehicle: suspension in saline) is 95 % of control; the T/C (dose: 1200.0 mg/kg/injection, schedule: Q04DX003 (sc), vehicle: suspension in saline) was 115 % of control; the T/C (dose: 2400.0 mg/kg/injection, schedule: Q04DX003 (sc), vehicle: suspension in saline) was 121 % of control.
As to `CCC(=O)Sc1ccccc1C(=O)Nc1ccc(Cl)cc1`, the T/C is, setting by setting: under setting [2], 97 % of control; under setting [7], 91 % of control; (dose: 2400.0 mg/kg/injection, schedule: Q04DX003 (sc), vehicle: saline with Tween-80) 98 % of control.
